± gives the standard deviation of the averaged measurements.
Assays:
Conditions in all cases: 72 h
Caco-2 [1] = assay: cell viability relative to DMSO; higher = less toxic
Calu-3 [2] = assay: as above
HepG2 [3] = assay: as above
U2OS [4] = assay: as above
Vero E6 [5] = assay: as above
Caco-2 [6] = assay: relative viability EC50 (midpoint between 100% and the lowest measured viability); higher = less toxic
Calu-3 [7] = assay: as above
HepG2 [8] = assay: as above
U2OS [9] = assay: as above
Vero E6 [10] = assay: as above
Caco-2 [11] = assay: drug sensitivity score (DSS) for viability; higher = more toxic; extreme values may be limits of the assay
Calu-3 [12] = assay: as above
HepG2 [13] = assay: as above
U2OS [14] = assay: as above
Vero E6 [15] = assay: as above

| SMILES | cell viability (Caco-2 [1]; 1 nM) | cell viability (Caco-2 [1]; 10 nM) | cell viability (Caco-2 [1]; 100 nM) | cell viability (Caco-2 [1]; 1000 nM) | cell viability (Caco-2 [1]; 10000 nM) | cell viability (Calu-3 [2]; 1 nM) | cell viability (Calu-3 [2]; 10 nM) | cell viability (Calu-3 [2]; 100 nM) | cell viability (Calu-3 [2]; 1000 nM) | cell viability (Calu-3 [2]; 10000 nM) | cell viability (HepG2 [3]; 1 nM) | cell viability (HepG2 [3]; 10 nM) | cell viability (HepG2 [3]; 100 nM) | cell viability (HepG2 [3]; 1000 nM) | cell viability (HepG2 [3]; 10000 nM) | cell viability (U2OS [4]; 1 nM) | cell viability (U2OS [4]; 10 nM) | cell viability (U2OS [4]; 100 nM) | cell viability (U2OS [4]; 1000 nM) | cell viability (U2OS [4]; 10000 nM) | cell viability (Vero E6 [5]; 1 nM) | cell viability (Vero E6 [5]; 10 nM) | cell viability (Vero E6 [5]; 100 nM) | cell viability (Vero E6 [5]; 1000 nM) | cell viability (Vero E6 [5]; 10000 nM) | relative viability EC50 (Caco-2 [6]) | relative viability EC50 (Calu-3 [7]) | relative viability EC50 (HepG2 [8]) | relative viability EC50 (U2OS [9]) | relative viability EC50 (Vero E6 [10]) | drug sensitivity score (Caco-2 [11]) | drug sensitivity score (Calu-3 [12]) | drug sensitivity score (HepG2 [13]) | drug sensitivity score (U2OS [14]) | drug sensitivity score (Vero E6 [15]) |
| --- | --- | --- | --- | --- | --- | --- | --- | --- | --- | --- | --- | --- | --- | --- | --- | --- | --- | --- | --- | --- | --- | --- | --- | --- | --- | --- | --- | --- | --- | --- | --- | --- | --- | --- | --- |
| C[C@]12C=CC(=O)C=C1CC[C@@H]1[C@@H]2C(=O)C[C@@]2(C)[C@H]1CC[C@]2(O)C(=O)CO [prednisone] | 95.8% | 99.6% | 100% | 89.7% | 85.3% | 97.8% | 98.1% | 98% | 106% | 103% | 100% | 105% | 98% | 101% | 90.6% | 98.9% | 99.2% | 95.7% | 99.6% | 95% | 100% | 99.3% | 104% | 97.4% | 94.6% | > 10 µM | > 10 µM | > 10 µM | > 10 µM | > 10 µM | 0.9 | 0 | 0 | 0 | 0 |
| O=C(O)/C=C\c1c[nH]cn1 [cis-Urocanic acid] | 93.8 ± 14% | 96.7 ± 3.2% | 92.3 ± 7.2% | 91.5 ± 8.9% | 98.1 ± 5.9% | 107 ± 4.3% | 108 ± 11% | 100 ± 4.8% | 98 ± 8.6% | 96.6 ± 3% | 97.1% | 95.9% | 88.1% | 102% | 95.2% | 99.2 ± 3% | 97.5 ± 2.8% | 97.7 ± 1.1% | 97.4 ± 4% | 100 ± 1.8% | 99.5 ± 3.1% | 99.8% | 100 ± 4.2% | 100.8 ± 0.64% | 99 ± 1.8% | > 10 µM | > 10 µM | > 10 µM | > 10 µM | > 10 µM | 1.25 ± 1.8 | 0 | 0 | 0 | 0 |
| CN(C)C(=O)N[C@H]1CC[C@H](CCN2CCN(c3cccc(Cl)c3Cl)CC2)CC1 [cariprazine] | 95.7% | 95.2% | 96.5% | 86.6% | 97.2% | 102% | 93% | 100% | 97.9% | 106% | 93% | 91.1% | 93.8% | 100% | 94.7% | 100% | 102% | 98% | 95.9% | 100% | 97.3% | 98.6% | 96.8% | 104% | 95.3% | > 10 µM | > 10 µM | > 10 µM | > 10 µM | > 10 µM | 0 | 0 | 0 | 0 | 0 |
| Cc1cccc(/C=C/c2ccccc2)n1 [SIB-1893] | 88.7% | 101% | 90.7% | 100% | 96.9% | 100% | 102% | 99.2% | 98.1% | 102% | 108% | 96.1% | 107% | 102% | 94.2% | 99.8% | 106% | 96.3% | 103% | 97.4% | 94% | 104% | 102% | 103% | 100% | > 10 µM | > 10 µM | > 10 µM | > 10 µM | > 10 µM | 0 | 0 | 0 | 0 | 0 |
| CNCC[C@@H](Oc1ccccc1C)c1ccccc1 [atomoxetine] | 99% | 96.8% | 98.3% | 97.8% | 92.8% | 106% | 104% | 98.7% | 86% | 96.3% | 87.3% | 98.5% | 100% | 104% | 93.5% | 106% | 97.5% | 101% | 94.8% | 101% | 106% | 106% | 102% | 106% | 99.1% | > 10 µM | > 10 µM | > 10 µM | > 10 µM | > 10 µM | 0 | 1.2 | 0 | 0 | 0 |
| CC[C@@H]1C(=O)N(C)c2cnc(Nc3ccc(C(=O)NC4CCN(C)CC4)cc3OC)nc2N1C1CCCC1 [BI-2536] | 94.4% | 96.5% | 56.8% | 61.3% | 31.5% | 93.3% | 97.3% | 85.4% | 77.7% | 3.8% | 106% | 92.2% | 27.4% | 24.2% | 7.7% | 97% | 103% | 53.1% | 28% | 8.1% | 96.2% | 98.7% | 103% | 37.4% | 1.1% | 0.148 µM | 1.66 µM | 0.0445 µM | 0.132 µM | 0.805 µM | 13.6 | 8.6 | 26.1 | 19.8 | 12.8 |
| C=CC(=O)Nc1cccc(Nc2nc(Nc3ccc(OCCOC)cc3)ncc2F)c1 [AVL-292] | 85.2% | 90.8% | 102% | 78.3% | 21.5% | 100% | 106% | 92.2% | 97.2% | 27.2% | 101% | 95.7% | 101% | 80.5% | 29.7% | 100% | 100% | 94.9% | 91.5% | 9% | 96.9% | 94.5% | 94.9% | 82.5% | 11.9% | 1.47 µM | 2.87 µM | 1.47 µM | 2.39 µM | 1.74 µM | 7.6 | 4.4 | 6.8 | 6.4 | 7.7 |

Source: the supplement of paper PMC13380429
